Data reported in PubChem BioAssay AID330 (DTP/NCI, 2004).
Values joined by “and” are separate entries in the source; they are usually repeats but may differ in a detail not shown here. Identical values can stand only once. Inconclusive results and toxic doses are left out. How the source made its calls: active means survival T/C of 150% or more; inactive means T/C below 125% in these data.

Tested on: P388 leukemia ip, CD2F1 mice, survival T/C
Test: NCI In Vivo Anticancer Drug Screen. Data for tumor model P388 Leukemia (intraperitoneal) in CD2F1 (CDF1) mice
Conditions: endpoint: median survival time, higher = longer survival
In short: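 Mice carrying the transplanted tumor received test compound or vehicle. Survival was recorded in each group, and the value is the treated-group measurement divided by that of the vehicle-treated control group.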

[1] = dose: 50.0 mg/kg/injection, schedule: Q01DX005 (ip), vehicle: saline with Tween-80
[2] = dose: 50.0 mg/kg/injection, schedule: Q01DX009 (ip), vehicle: Klucel (hydroxypropylcellulose) (HPC)
[3] = dose: 100.0 mg/kg/injection, schedule: Q01DX009 (ip), vehicle: Klucel (hydroxypropylcellulose) (HPC)
[4] = dose: 60.0 mg/kg/injection, schedule: Q01DX005 (ip), vehicle: saline with Tween-80
[5] = dose: 120.0 mg/kg/injection, schedule: Q01DX005 (ip), vehicle: saline with Tween-80
[6] = dose: 240.0 mg/kg/injection, schedule: Q01DX005 (ip), vehicle: saline with Tween-80
[7] = dose: 50.0 mg/kg/injection, schedule: Q01DX009 (ip), vehicle: saline with Tween-80
[8] = dose: 100.0 mg/kg/injection, schedule: Q01DX009 (ip), vehicle: saline with Tween-80
[9] = dose: 100.0 mg/kg/injection, schedule: Q01DX001 (ip), vehicle: saline with Tween-80
[10] = dose: 200.0 mg/kg/injection, schedule: Q01DX001 (ip), vehicle: saline with Tween-80
[11] = dose: 25.0 mg/kg/injection, schedule: Q01DX009 (ip), vehicle: saline
[12] = dose: 50.0 mg/kg/injection, schedule: Q01DX009 (ip), vehicle: saline
[13] = dose: 100.0 mg/kg/injection, schedule: Q01DX009 (ip), vehicle: saline
[14] = dose: 200.0 mg/kg/injection, schedule: Q01DX009 (ip), vehicle: saline
[15] = dose: 50.0 mg/kg/injection, schedule: Q01DX005 (ip), vehicle: Klucel (hydroxypropylcellulose) (HPC)
[16] = dose: 100.0 mg/kg/injection, schedule: Q01DX005 (ip), vehicle: Klucel (hydroxypropylcellulose) (HPC)
[17] = dose: 200.0 mg/kg/injection, schedule: Q01DX005 (ip), vehicle: Klucel (hydroxypropylcellulose) (HPC)

Measured: T/C

CCCCOc1cc2c(cc1C(C)c1ccccc1)OCO2 (centres undefined)
inactive: dose: 12.5 mg/kg/injection, schedule: Q01DX005 (ip), vehicle: saline with Tween-80 94 % of control | dose: 25.0 mg/kg/injection, schedule: Q01DX005 (ip), vehicle: saline with Tween-80 91 % of control | [1] 101 % of control and 90 % of control

FC(F)(F)C1=C(C(F)(F)F)SP23(OCCC(CO2)O3)S1 (centres undefined)
inactive: dose: 12.5 mg/kg/injection, schedule: Q01DX009 (ip), vehicle: Klucel (hydroxypropylcellulose) (HPC) 107 % of control and 108 % of control | dose: 25.0 mg/kg/injection, schedule: Q01DX009 (ip), vehicle: Klucel (hydroxypropylcellulose) (HPC) 106 % of control and 114 % of control | [2] 109 % of control and 114 % of control | [3] 107 % of control and 116 % of control

COc1ccc(-c2c([O-])oc(-c3ccccc3)[n+]2C)cc1
inactive: [4] 98 % of control | [5] 96 % of control | [6] 98 % of control

CCOC(=O)C1=C(C)N(C)C(C)=C(C(=O)OCC)C1c1ccc(Cl)cc1
inactive: dose: 25.0 mg/kg/injection, schedule: Q01DX009 (ip), vehicle: distilled water + Tween-80 99 % of control | dose: 50.0 mg/kg/injection, schedule: Q01DX009 (ip), vehicle: distilled water + Tween-80 97 % of control | dose: 100.0 mg/kg/injection, schedule: Q01DX009 (ip), vehicle: distilled water + Tween-80 89 % of control | dose: 400.0 mg/kg/injection, schedule: Q01DX009 (ip), vehicle: distilled water + Tween-80 98 % of control

CCOC(=O)c1csc(Br)n1
inactive: [4] 104 % of control | [5] 100 % of control | [6] 100 % of control

O=S1(=O)C(c2ccc(F)cc2)=C(O)c2cc3ccccc3nc21
inactive: [7] 112 % of control | [8] 97 % of control

N#Cc1c2ccccc2nc2ccccc12
inactive: [1] 100 % of control | dose: 100.0 mg/kg/injection, schedule: Q01DX005 (ip), vehicle: saline with Tween-80 96 % of control | dose: 200.0 mg/kg/injection, schedule: Q01DX005 (ip), vehicle: saline with Tween-80 89 % of control

COc1ccc2c(c1)[C@]13CCN(C)[C@H](C2)[C@@H]1CCC1(C3)OCCO1
inactive: [9] 104 % of control | [10] 106 % of control

OC1CCCCC1C1CCCCC1O (centres undefined)
inactive: [9] 105 % of control | [10] 99 % of control | dose: 400.0 mg/kg/injection, schedule: Q01DX001 (ip), vehicle: saline with Tween-80 104 % of control

S=c1[nH]cc2cnccn12
inactive: dose: 50.0 mg/kg/injection, schedule: Q04DX003 (ip), vehicle: saline with Tween-80 100 % of control | dose: 100.0 mg/kg/injection, schedule: Q04DX003 (ip), vehicle: saline with Tween-80 110 % of control | dose: 200.0 mg/kg/injection, schedule: Q04DX003 (ip), vehicle: saline with Tween-80 110 % of control

CC(=O)O[C@@H]1C(=O)[C@]2(CO)C(C(OC(=O)c3ccccc3)C3(O)CC(O)C(C)=C1C3(C)C)[C@@]1(OC(C)=O)CO[C@H]1C[C@H]2O (some centres undefined)
inactive: dose: 0.26 mg/kg/injection, schedule: Q01DX009 (ip), vehicle: distilled water + alcohol 108 % of control | dose: 0.53 mg/kg/injection, schedule: Q01DX009 (ip), vehicle: distilled water + alcohol 106 % of control | dose: 1.07 mg/kg/injection, schedule: Q01DX009 (ip), vehicle: distilled water + alcohol 106 % of control | dose: 2.15 mg/kg/injection, schedule: Q01DX009 (ip), vehicle: distilled water + alcohol 105 % of control | dose: 4.3 mg/kg/injection, schedule: Q01DX009 (ip), vehicle: distilled water + alcohol 108 % of control

C[n+]1ccccc1C(=O)O
inactive: [11] 102 % of control | [12] 98 % of control | [13] 103 % of control | [14] 92 % of control

COc1ccc(C2c3cc4c(cc3OC(C)(OC)C2C)OCO4)c(OC)c1OC (centres undefined)
inactive: [9] 94 % of control | [10] 94 % of control

CN1C(=O)Cn2c(n[nH]c(=O)c2=O)-c2cc(Cl)ccc21
inactive: [2] 95 % of control | [3] 86 % of control

COc1ccc2c(-c3ccc(O)cc3)c(-c3ccccc3)c(=O)oc2c1
inactive: [4] 86 % of control | [5] 97 % of control | [6] 89 % of control

C=C1C(=O)[C@]23C[C@H]1CC[C@H]2[C@@]12CO[C@@H](O)[C@@H]1C(C)(C)[C@@H](O)C[C@@H]2OC3=O
inactive: dose: 3.8 mg/kg/injection, schedule: Q01DX008 (ip), vehicle: saline with Tween-80 100 % of control | dose: 7.5 mg/kg/injection, schedule: Q01DX008 (ip), vehicle: saline with Tween-80 102 % of control | dose: 7.5 mg/kg/injection, schedule: Q01DX009 (ip), vehicle: saline with Tween-80 113 % of control | dose: 15.0 mg/kg/injection, schedule: Q01DX008 (ip), vehicle: saline with Tween-80 94 % of control | dose: 15.0 mg/kg/injection, schedule: Q01DX009 (ip), vehicle: saline with Tween-80 123 % of control | dose: 30.0 mg/kg/injection, schedule: Q01DX008 (ip), vehicle: saline with Tween-80 102 % of control | dose: 30.0 mg/kg/injection, schedule: Q01DX009 (ip), vehicle: saline with Tween-80 117 % of control | dose: 60.0 mg/kg/injection, schedule: Q01DX009 (ip), vehicle: saline with Tween-80 113 % of control

COC(=O)c1ccccc1N1C(=O)c2ccccc2NP1(=O)Oc1ccccc1 (centres undefined)
inactive: dose: 25.0 mg/kg/injection, schedule: Q01DX005 (ip), vehicle: Klucel (hydroxypropylcellulose) (HPC) 101 % of control | [15] 104 % of control | [16] 106 % of control | [17] 91 % of control

Nc1nc(N)c2cn[nH]c2n1
inactive: dose: 6.25 mg/kg/injection, schedule: Q01DX009 (ip), vehicle: saline 95 % of control | dose: 12.5 mg/kg/injection, schedule: Q01DX009 (ip), vehicle: saline 93 % of control | [11] 100 % of control | [12] 104 % of control

CC1(C)OC(=O)C(CC(=O)O)O1 (centres undefined)
inactive: dose: 60.0 mg/kg/injection, schedule: Q01DX005 (ip), vehicle: saline 105 % of control | dose: 120.0 mg/kg/injection, schedule: Q01DX005 (ip), vehicle: saline 100 % of control | dose: 240.0 mg/kg/injection, schedule: Q01DX005 (ip), vehicle: saline 100 % of control

O=C1/C(=C/c2ccc(O)c(O)c2)Cc2ccccc21
inactive: dose: 25.0 mg/kg/injection, schedule: Q01DX009 (ip), vehicle: saline with Tween-80 102 % of control | [7] 103 % of control | [8] 105 % of control | dose: 200.0 mg/kg/injection, schedule: Q01DX009 (ip), vehicle: saline with Tween-80 103 % of control

CCN(CC)C(Cc1ccccc1)=NC(C)(C)C
inactive: [7] 94 % of control | [8] 88 % of control

C=CCCOC1CCCCO1 (centres undefined)
inactive: dose: 50.0 mg/kg/injection, schedule: Q01DX009 (ip), vehicle: other 104 % of control | dose: 100.0 mg/kg/injection, schedule: Q01DX009 (ip), vehicle: other 104 % of control | dose: 200.0 mg/kg/injection, schedule: Q01DX009 (ip), vehicle: other 100 % of control

Cc1csc(N=Nc2ccc(N(C)C)cc2)[n+]1[O-]
inactive: [2] 103 % of control | [3] 109 % of control | dose: 200.0 mg/kg/injection, schedule: Q01DX009 (ip), vehicle: Klucel (hydroxypropylcellulose) (HPC) 108 % of control

C[C@H]1CC[C@@H]2O[C@@]23C(=O)OC2OC(C)(C)[C@@H]([C@H]2O)[C@]13C
inactive: [15] 102 % of control | [16] 96 % of control | [17] 107 % of control

Cc1c(C)c(C[P+](CCP(c2ccccc2)c2ccccc2)(c2ccccc2)c2ccccc2)c(C)c(C)c1C[P+](CCP(c1ccccc1)c1ccccc1)(c1ccccc1)c1ccccc1
inactive: dose: 3.12 mg/kg/injection, schedule: Q04DX002 (ip), vehicle: saline with Tween-80 100 % of control | dose: 6.25 mg/kg/injection, schedule: Q04DX002 (ip), vehicle: saline with Tween-80 102 % of control | dose: 12.5 mg/kg/injection, schedule: Q04DX002 (ip), vehicle: saline with Tween-80 100 % of control and 101 % of control

CCN(CC)[Se]c1ccccc1
inactive: dose: 100.0 mg/kg/injection, schedule: Q04DX002 (ip), vehicle: saline with Tween-80 101 % of control | dose: 200.0 mg/kg/injection, schedule: Q04DX002 (ip), vehicle: saline with Tween-80 100 % of control | dose: 400.0 mg/kg/injection, schedule: Q04DX002 (ip), vehicle: saline with Tween-80 98 % of control

O=C(O)C1CCCN1 (centres undefined)
inactive: [12] 98 % of control | [13] 100 % of control | [14] 100 % of control
